Data: ChEMBL document CHEMBL1201862, “PubChem BioAssay data set” (2004)
Calls of active or inactive are those of the source.

What was measured:
Protein Wnt-3a = Protein Wnt-3a (Mus musculus, UniProt P27467); test: SAR analysis of small molecule antagonists of Gli-SUFU in a Wnt3a luminescent reporter assay.; assay type: functional
[1] = HepG2 cell cytotoxicity, dose response, cytotoxicity control, ATP luminescence, cherry-pick, activator set 2 (AID 1053143); assay type: functional, cell-based
[2] = biological target: DNA repair protein RAD52 homolog (Homo sapiens, UniProt P43351); assay type: functional, biochemical
Chain of DNA repair protein RAD52 homolog (P43351 whole entry): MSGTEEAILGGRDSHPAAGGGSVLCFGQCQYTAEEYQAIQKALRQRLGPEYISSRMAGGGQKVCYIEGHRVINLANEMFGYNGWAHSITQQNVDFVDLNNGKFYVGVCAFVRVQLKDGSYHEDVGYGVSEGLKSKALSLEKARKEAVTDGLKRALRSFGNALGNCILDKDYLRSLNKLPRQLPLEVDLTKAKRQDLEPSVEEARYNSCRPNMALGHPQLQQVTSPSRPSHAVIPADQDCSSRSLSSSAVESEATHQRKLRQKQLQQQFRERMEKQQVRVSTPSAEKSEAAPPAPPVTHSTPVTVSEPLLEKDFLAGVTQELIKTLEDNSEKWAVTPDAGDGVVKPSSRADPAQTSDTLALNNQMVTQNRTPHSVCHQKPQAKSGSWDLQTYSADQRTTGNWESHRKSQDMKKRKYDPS

[3] = biological target: DNA repair and recombination protein RAD54-like (Homo sapiens, UniProt Q92698); test: inhibitors of human RAD54 branch migration, confirmation, biochemical, fluorescence, cherry-picked samples, dose series (AID 651657); assay type: functional
Chain of DNA repair and recombination protein RAD54-like (Q92698 whole entry): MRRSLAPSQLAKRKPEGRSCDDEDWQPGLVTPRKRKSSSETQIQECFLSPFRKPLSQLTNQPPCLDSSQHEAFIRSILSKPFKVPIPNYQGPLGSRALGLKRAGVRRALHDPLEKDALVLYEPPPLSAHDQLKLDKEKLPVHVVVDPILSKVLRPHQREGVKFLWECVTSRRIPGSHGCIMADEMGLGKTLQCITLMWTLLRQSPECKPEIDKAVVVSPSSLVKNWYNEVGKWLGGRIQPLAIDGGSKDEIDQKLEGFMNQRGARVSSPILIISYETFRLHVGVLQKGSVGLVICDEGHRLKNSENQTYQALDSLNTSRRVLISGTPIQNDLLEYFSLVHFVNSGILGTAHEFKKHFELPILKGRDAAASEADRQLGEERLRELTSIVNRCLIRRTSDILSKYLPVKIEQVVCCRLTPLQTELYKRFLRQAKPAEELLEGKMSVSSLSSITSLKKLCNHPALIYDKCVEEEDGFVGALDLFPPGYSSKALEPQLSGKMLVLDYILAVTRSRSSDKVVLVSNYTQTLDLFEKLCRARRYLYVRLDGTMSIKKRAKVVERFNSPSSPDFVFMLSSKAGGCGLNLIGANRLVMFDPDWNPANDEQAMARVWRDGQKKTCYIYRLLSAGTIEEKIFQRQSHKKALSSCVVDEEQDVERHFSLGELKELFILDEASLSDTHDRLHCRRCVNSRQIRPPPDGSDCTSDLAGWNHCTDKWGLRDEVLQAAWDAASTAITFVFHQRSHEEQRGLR

[4] = T. cruzi growth inhibition in host cells, dose response, cell-based, plate reader, dry powder, set 2 (AID 652275); assay type: functional
[5] = biological target: FAD-linked sulfhydryl oxidase ALR (Homo sapiens, UniProt P55789); test: inhibitors of human ALR sulfhydryl oxidase, dose response, biochemical, H2O2 detection, luminescence, cherry-pick (AID 493248)
Chain of FAD-linked sulfhydryl oxidase ALR (P55789 whole entry, the tested form may be a part): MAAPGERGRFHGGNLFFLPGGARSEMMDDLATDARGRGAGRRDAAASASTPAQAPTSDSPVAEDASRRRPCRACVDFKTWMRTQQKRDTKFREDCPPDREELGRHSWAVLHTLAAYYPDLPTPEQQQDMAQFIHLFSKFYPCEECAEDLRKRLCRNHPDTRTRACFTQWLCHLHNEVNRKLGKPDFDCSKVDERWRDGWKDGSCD

[6] = biological target: T1, Oxysterols receptor LXR-beta (Homo sapiens, UniProt P55055); assay type: functional, cell-based;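 note: agonist activity at LXR measured by a cell-based luminescence readout across a dose range, run as a counterscreen for daf-12 agonists; HEK293 cells with Gal4-LXR fusion and GAL4-driven luciferase reporter; potency for activation of Gal4-LXR reporter so compounds are agonists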
T1 sequence (P55055 whole entry): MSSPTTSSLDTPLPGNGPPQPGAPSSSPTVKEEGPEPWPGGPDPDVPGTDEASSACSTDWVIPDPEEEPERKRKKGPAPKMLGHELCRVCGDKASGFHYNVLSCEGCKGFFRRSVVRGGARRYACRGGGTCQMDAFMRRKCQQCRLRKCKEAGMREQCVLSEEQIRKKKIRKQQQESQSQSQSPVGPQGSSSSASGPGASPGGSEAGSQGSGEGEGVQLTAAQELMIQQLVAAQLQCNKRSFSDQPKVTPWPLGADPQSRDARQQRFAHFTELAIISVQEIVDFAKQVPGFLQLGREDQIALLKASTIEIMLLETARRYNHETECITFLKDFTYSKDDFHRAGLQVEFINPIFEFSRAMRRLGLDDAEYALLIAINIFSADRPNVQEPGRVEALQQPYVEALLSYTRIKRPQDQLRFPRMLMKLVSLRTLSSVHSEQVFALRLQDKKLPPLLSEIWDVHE

[7] = biological target: T2, High affinity choline transporter 1 (Homo sapiens, UniProt Q9GZV3); test: CHT inhibitors, dose response, cell-based, 5-point CRC, membrane potential dye (AID 504840); assay type: functional
T2 sequence (Q9GZV3 whole entry): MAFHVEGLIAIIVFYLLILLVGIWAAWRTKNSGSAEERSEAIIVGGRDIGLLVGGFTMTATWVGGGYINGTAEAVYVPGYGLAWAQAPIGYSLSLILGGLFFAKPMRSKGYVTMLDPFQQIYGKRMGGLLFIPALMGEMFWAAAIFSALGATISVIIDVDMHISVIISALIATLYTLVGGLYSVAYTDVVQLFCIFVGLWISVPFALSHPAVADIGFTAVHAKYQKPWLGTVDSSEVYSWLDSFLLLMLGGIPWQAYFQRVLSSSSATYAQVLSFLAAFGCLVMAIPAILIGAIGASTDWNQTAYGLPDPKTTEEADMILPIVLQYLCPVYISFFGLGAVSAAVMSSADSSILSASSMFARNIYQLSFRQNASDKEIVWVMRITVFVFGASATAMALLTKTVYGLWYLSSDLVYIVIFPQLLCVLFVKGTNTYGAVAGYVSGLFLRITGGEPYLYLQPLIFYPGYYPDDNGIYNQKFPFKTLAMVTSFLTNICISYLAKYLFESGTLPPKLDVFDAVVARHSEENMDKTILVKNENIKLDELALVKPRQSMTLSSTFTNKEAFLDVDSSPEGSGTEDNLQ

[8] = human group III sPLA2 inhibitors, dose response, biochemical, QFRET, IC50 (AID 743457);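 note: green fluorescence rise as the enzyme cleaves BODIPY PC-A2 in liposomes; potency for inhibition of the enzyme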
[9] = biological target: Protein disulfide-isomerase (Homo sapiens, UniProt P07237); test: PDI inhibitors, insulin turbidity readout, confirmation, biochemical, dry powder samples, set 2 (AID 652146)
Chain of Protein disulfide-isomerase (P07237 whole entry): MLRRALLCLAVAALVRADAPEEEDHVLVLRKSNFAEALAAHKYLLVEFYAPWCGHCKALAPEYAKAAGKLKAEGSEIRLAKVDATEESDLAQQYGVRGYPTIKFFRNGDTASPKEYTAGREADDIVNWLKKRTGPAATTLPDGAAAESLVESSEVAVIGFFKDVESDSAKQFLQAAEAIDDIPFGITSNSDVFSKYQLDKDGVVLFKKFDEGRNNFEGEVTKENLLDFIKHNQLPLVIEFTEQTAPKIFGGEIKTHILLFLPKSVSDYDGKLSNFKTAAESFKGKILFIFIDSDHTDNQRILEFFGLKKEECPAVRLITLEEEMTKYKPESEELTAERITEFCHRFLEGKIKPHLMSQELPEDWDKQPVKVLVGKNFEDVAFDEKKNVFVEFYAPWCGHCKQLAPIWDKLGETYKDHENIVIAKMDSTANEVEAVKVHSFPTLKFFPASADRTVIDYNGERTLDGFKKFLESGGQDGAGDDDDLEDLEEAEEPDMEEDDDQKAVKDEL

Trypsin = Trypsin (Sus scrofa, UniProt P00761); test: porcine trypsin inhibitors, dose response, selectivity assay for Rce1 protease inhibitor project, biochemical, quenched peptide fluorescence, cherry-pick (AID 488789)
Chain of Trypsin (P00761 whole entry): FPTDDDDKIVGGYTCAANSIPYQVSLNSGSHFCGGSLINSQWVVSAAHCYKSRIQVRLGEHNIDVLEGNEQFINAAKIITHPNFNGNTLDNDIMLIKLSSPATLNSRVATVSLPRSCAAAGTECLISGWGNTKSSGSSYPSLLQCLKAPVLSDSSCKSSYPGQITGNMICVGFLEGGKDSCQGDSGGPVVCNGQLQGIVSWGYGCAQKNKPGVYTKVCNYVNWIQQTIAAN

[10] = cytotoxicity toward NIH3T3 fibroblasts, dose response, counter-screen, cell-based, ATP luminescence, mouse fibroblasts (AID 2010); assay type: functional;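 note: cells exposed to compound for about 90 hours before reading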
[11] = inhibitors of intracellular T. cruzi replication, confirmation, NIH3T3 host cells, beta-gal luminescence (AID 2044); assay type: functional, cell-based;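 note: intracellular parasites grown in NIH/3T3 mouse fibroblasts as host cells; luminescent beta-galactosidase reporter signal from transgenic T. cruzi replicating inside host cells; inhibitors lower the luminescence signal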
CAAX prenyl protease 2 = biological target: T3, CAAX prenyl protease 2 (Homo sapiens, UniProt Q9Y256); test: human Rce1 protease inhibitors, dose response, biochemical, yeast membranes, quenched-peptide fluorescence, cherry-pick (AID 588849)
T3 sequence (Q9Y256 whole entry): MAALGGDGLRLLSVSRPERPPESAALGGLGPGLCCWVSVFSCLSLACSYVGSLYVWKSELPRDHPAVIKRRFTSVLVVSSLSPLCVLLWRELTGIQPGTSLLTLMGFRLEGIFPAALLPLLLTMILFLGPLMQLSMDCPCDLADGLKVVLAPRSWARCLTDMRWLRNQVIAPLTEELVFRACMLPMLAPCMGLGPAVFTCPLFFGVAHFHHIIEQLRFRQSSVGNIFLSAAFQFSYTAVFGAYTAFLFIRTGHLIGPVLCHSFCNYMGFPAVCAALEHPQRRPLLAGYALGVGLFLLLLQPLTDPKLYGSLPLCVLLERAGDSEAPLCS

[12] = biological target: T4, Ubiquitin-conjugating enzyme E2 N (Homo sapiens, UniProt P61088); assay type: functional;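 note: Dose-response confirmation in a TR-FRET assay detecting UBC13-driven polyubiquitin chain formation, inhibition measured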
T4 sequence (P61088 whole entry): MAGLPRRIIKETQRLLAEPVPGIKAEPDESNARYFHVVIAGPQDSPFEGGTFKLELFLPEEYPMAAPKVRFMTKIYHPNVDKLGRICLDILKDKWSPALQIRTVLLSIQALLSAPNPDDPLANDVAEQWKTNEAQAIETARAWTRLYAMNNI

Chain of Protein Wnt-3a (P27467 whole entry): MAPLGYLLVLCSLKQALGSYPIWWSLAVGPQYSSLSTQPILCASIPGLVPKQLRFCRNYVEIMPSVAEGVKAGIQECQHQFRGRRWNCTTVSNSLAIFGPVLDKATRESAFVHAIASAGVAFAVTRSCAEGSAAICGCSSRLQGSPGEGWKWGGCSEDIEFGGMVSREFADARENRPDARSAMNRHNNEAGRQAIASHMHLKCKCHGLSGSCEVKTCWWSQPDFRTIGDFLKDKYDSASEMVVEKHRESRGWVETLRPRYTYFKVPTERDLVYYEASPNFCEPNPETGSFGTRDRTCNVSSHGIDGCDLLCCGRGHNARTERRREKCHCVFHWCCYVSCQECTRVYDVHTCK

Q: With `CCN(CC)c1cc(NC(=O)c2cc(OC)cc(OC)c2)ncn1` as the compound, how does the IC50 (Protein Wnt-3a) read?
A: > 21.8 µM (inactive)

Q: Which AC50 [1] does the source give for `Cc1ncoc1C(=O)Nc1ncc([N+](=O)[O-])s1` here?
A: 26 µM (active)

Q: With `CN(C)CCCN(C(=O)c1ccc([N+](=O)[O-])o1)c1nc2cc3c(cc2s1)OCO3` as the compound, how does the AC50 [2] read?
A: 10.5 µM (active)

Q: And the AC50 [3]?
A: 24.6 µM (active)

Q: For `CC(C)N1CC2(CN(Cc3ccc(-c4cccnc4)cc3)C2)Oc2c(NC(=O)c3ccncc3)cccc2C1=O`, which AC50 [4] is on record?
A: 0.179 µM (active)

Q: What does the source list for `Cc1nn(-c2ccccc2)c(Cl)c1/C=N/Nc1ccc(Cl)c(C(=O)O)c1`?
A: AC50 [5]: 0.907 µM (active); EC50 [6]: > 67.5 µM (inactive)

Q: For `O=C(NN=C(S)Nc1ccc(F)cc1)C1CC1c1ccc(Cl)cc1` (stereo not drawn), which IC50 [7] is on record?
A: 13.2 µM (active)

Q: And the IC50 [8]?
A: > 122 µM (inactive)

Q: With `O=C(NC1CCCC1)C1(CCOc2ccccc2)CCN(Cc2ccc(O)c(Cl)c2)CC1` as the compound, how does the AC50 [9] read?
A: 5 µM (active)

Q: Which IC50 (Protein Wnt-3a) does the source give for `CCN(CC)c1cc(NC(=O)c2ccccc2)ncn1` here?
A: > 21.8 µM (inactive)

Q: With `CCOC(=O)c1c(-c2ccccc2)oc2ccc(OCC(O)CNCCN(C)C)cc12` (stereo not drawn) as the compound, how does the AC50 (Trypsin) read?
A: 10.3 µM (active)

Q: What about the EC50 [10] of the same compound?
A: 5.42 µM (active)

Q: And the EC50 [11]?
A: 1.79 µM (active)

Q: And the AC50 (CAAX prenyl protease 2)?
A: 11.8 µM (active)

Q: And the AC50 [2]?
A: 5 µM (active)

Q: What about the IC50 [12] of the same compound?
A: > 20 µM (inactive)

Q: Which AC50 [4] does the source give for `O=C(c1ccc(F)cc1)N1CCCCN2[C@@H](CO)[C@H](c3ccc(-c4ccccc4)cc3)[C@@H]2C1` here?
A: 2.56 µM (active)
